Like-named read-outs stand apart in the source and are kept apart here. Marks after values point to notes of the source that are not given here.
What was measured:
[1] = type: binding; settings: heme 2.4 μM, DMSO:H2O/4:6, v/v; increasing compound concentration
GC rich CT DNA = type: binding, calf
[2] = system: Madin Darby canine kidney (MDCK) cells
[3] = pH 5.6; cited from earlier work
P. falciparum CQ^R (K1) = assay: microbe, parasite or virus in culture; type: cell-based, Plasmodium falciparum
[4] = pH 5.8; cited from earlier work
P. falciparum CQ^S (3D7) = type: cell-based, Plasmodium falciparum; settings: read-out: IC50 CQ^S (3D7); CQ sensitive strain; primary screening

Molecule	Cytotoxicity MIC ([2]; dog)	other results
CCOC(=O)c1c(C)nc(Nc2ccccc2Nc2ccnc3cc(Cl)ccc23)nc1-c1ccccc1 [Compound 10h, 5-Ethoxycarbonyl-6-methyl-4-phenyl-2-[2-(7-chloroquinolin-4-ylamino)phenylamino] pyrimidine]		change in heme absorbance at 402 nm on titration [1]: no change in the absorbance at 402 nm
Cc1nc(NCCCCNc2ccnc3cc(Cl)ccc23)nc(-c2ccccc2[N+](=O)[O-])c1C(=O)OC(C)C [Compound 10r, 5-Isopropyloxycarbonyl-6-methyl-4-(2-nitrophenyl)-2-[(7-chloroquinolin-4-ylamino)butylamino] pyrimidine]	4.0 µM	binding constant (log K) from fluorescence data, CT DNA (GC rich CT DNA): 4.67
NC(=O)c1ncn([C@@H]2O[C@H](CO)[C@@H](O)[C@H]2O)n1 [Ribavirin, reference compound]	h 50% cytotoxic concentration, as determined by measuring the cell viability with the colorimetric formazan- based MTS assay (reference drugs used: Oseltamivir carboxylate CC50/MIC >100, Ribavirin CC50/MIC >100, Amantadine CC50/MIC >200 and Rimantadine CC50/MIC >200). μM	
CCOC(=O)c1c(C)nc(NCCCNc2ccnc3cc(Cl)ccc23)nc1-c1ccccc1 [Compound 10b, 5-Ethoxycarbonyl-6-methyl-4-phenyl-2-[(7-chloroquinolin-4-ylamino)propylamino]pyrimidine]	0.8 µM	
CCOC(=O)c1c(C)nc(NCCNc2ccnc3cc(Cl)ccc23)nc1-c1ccccc1 [Compound 10a, 5-Ethoxycarbonyl-6-methyl-4-phenyl-2-[(7-chloroquinolin-4-ylamino)ethylamino] pyrimidine]	0.8 µM	
Cc1nc(NCCNc2ccnc3cc(Cl)ccc23)nc(-c2ccccc2[N+](=O)[O-])c1C(=O)OC(C)C [Compound 10p, 5-Isopropyloxycarbonyl-6-methyl-4-(2-nitrophenyl)-2-[(7-chloroquinolin-4-ylamino)ethylamino] pyrimidine]	≥0.8 µM	
CCN(CC)CCCC(C)Nc1ccnc2cc(Cl)ccc12 (stereo not drawn) [Compound 2, chloroquine, reference compound]		Monomeric heme log K [3]: 4.82; IC50 (P. falciparum CQ^R (K1); Plasmodium falciparum, K1, read-out: IC50 CQ^R (K1)): 202 nM; μ-oxo heme log K [4]: 5.6 ^c
CCOC(=O)c1c(C)nc(NCCCCNc2ccnc3cc(Cl)ccc23)nc1-c1ccccc1 [Compound 10c, 5-Ethoxycarbonyl-6-methyl-4-phenyl-2-[(7-chloroquinolin-4-ylamino)butylamino]pyrimidine]	0.8 µM	
Cc1nc(NCCCNc2ccnc3cc(Cl)ccc23)nc(-c2cccc([N+](=O)[O-])c2)c1C(=O)OC(C)C [Compound 10n, 5-Isopropyloxycarbonyl-6-methyl-4-(3-nitrophenyl)-2-[(7-chloroquinolin-4-ylamino)propylamino]pyrimidine]	0.8 µM	
Oseltamivir carboxylate [reference compound]		CC50 [2]: > 100000 nM; Cytotoxicity MIC [2]: h 50% cytotoxic concentration, as determined by measuring the cell viability with the colorimetric formazan- based MTS assay (reference drugs used: Oseltamivir carboxylate CC50/MIC >100, Ribavirin CC50/MIC >100, Amantadine CC50/MIC >200 and Rimantadine CC50/MIC >200). μM
NC12CC3CC(CC(C3)C1)C2 [Amantadine, reference compound]	h 50% cytotoxic concentration, as determined by measuring the cell viability with the colorimetric formazan- based MTS assay (reference drugs used: Oseltamivir carboxylate CC50/MIC >100, Ribavirin CC50/MIC >100, Amantadine CC50/MIC >200 and Rimantadine CC50/MIC >200). μM	
CC(N)C12CC3CC(CC(C3)C1)C2 (stereo not drawn) [Rimantadine, reference compound]	h 50% cytotoxic concentration, as determined by measuring the cell viability with the colorimetric formazan- based MTS assay (reference drugs used: Oseltamivir carboxylate CC50/MIC >100, Ribavirin CC50/MIC >100, Amantadine CC50/MIC >200 and Rimantadine CC50/MIC >200). μM	
CCOC(=O)c1c(C)nc(Nc2ccc(Nc3ccnc4cc(Cl)ccc34)cc2)nc1-c1ccccc1 [Compound 10i, 5-Ethoxycarbonyl-6-methyl-4-phenyl-2-[4-(7-chloroquinolin-4-ylamino)phenylamino] pyrimidine]		change in heme absorbance at 402 nm on titration [1]: marked gradual decrease in absorbance at 402 nm
CCOC(=O)c1c(C)nc(NCCCCNc2ccnc3cc(Cl)ccc23)nc1C [Compound 10m, 5-Ethoxycarbonyl-6-methyl-4-methyl-2-[(7-chloroquinolin-4-ylamino)butylamino]pyrimidine]	4 µM	
CCOC(=O)c1c(C)nc(NCCCNc2ccnc3cc(Cl)ccc23)nc1C [Compound 10l, 5-Ethoxycarbonyl-6-methyl-4-methyl-2-[(7-chloroquinolin-4-ylamino)propylamino]pyrimidine]	20 µM	
5-Ethoxycarbonyl-6-methyl-4-phenyl-2-[5-(7-chloroquinolin-4-ylamino)-2-methylpentylamino] pyrimidine [Compound 10k]		IC50 (P. falciparum CQ^S (3D7)): 287 nM; IC50 (P. falciparum CQ^R (K1); read-out: IC50 CQ^R (K1)): 860 nM
